The values below come from PubChem BioAssay (NCI).

Structures are written as SMILES.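 Five concentrations, 48 hours, 96-well plates. GI50 marks 50% less growth. TGI marks complete inhibition of growth.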 The source made the active and inactive calls. No stated cut-off is given here; in the data, active means GI50 below about 0.43 µM; inactive means the rest.

Some test systems named below: ACHN renal; HOP-92 NSCLC; IGROV1 ovarian; M14 melanoma; NCI/ADR-RES ovarian; PC-3 prostate; SK-MEL-2 melanoma; SK-MEL-28 melanoma; SNB-75 CNS.
What all share (assay): NCI-60 cell line screen, 48 h

In the case of `O=C(O)C(=Cc1ccc(-c2ccccc2)cc1)C(=O)O`, the TGI with ACHN renal was 60.1 µM; with HOP-92 NSCLC, over 68.6 µM; with IGROV1 ovarian it was over 100 µM; in the test on M14 melanoma, 29.5 µM; in the test on NCI/ADR-RES ovarian it was over 94 µM; with PC-3 prostate, 27.6 µM. Also, the TGI in the test with SK-MEL-2 melanoma worked out at 16.6 µM; in the test with SK-MEL-28 melanoma, 48.3 µM; in the test on SNB-75 CNS, 28 µM.

For the molecule `Cc1ccc2c(c1)Sc1c(ccc3ccccc13)N2`, the GI50 in the test with ACHN renal was 55.5 µM; in the test with HOP-92 NSCLC it was 7.07 µM; with IGROV1 ovarian it was 6.48 µM; with M14 melanoma, over 100 µM; in the test with NCI/ADR-RES ovarian it was 41.9 µM; with PC-3 prostate it was 11.5 µM. Moreover, the GI50 is over 100 µM with SK-MEL-2 melanoma, over 100 µM in the test on SK-MEL-28 melanoma and 15.5 µM in the test on SNB-75 CNS. Moreover, the TGI with ACHN renal, in the test on HOP-92 NSCLC, with IGROV1 ovarian, with M14 melanoma, in the test with NCI/ADR-RES ovarian and with PC-3 prostate was over 100 µM each time. The TGI with SK-MEL-2 melanoma, with SK-MEL-28 melanoma and with SNB-75 CNS was over 100 µM each time.

For the molecule `Cc1cc(Cl)cc2c1NC(=O)C2(O)CC(=O)c1ccco1` (centres undefined), the TGI with ACHN renal, with HOP-92 NSCLC, in the test with IGROV1 ovarian, with M14 melanoma, in the test on NCI/ADR-RES ovarian and in the test with PC-3 prostate was over 100 µM each time. The TGI in the test with SK-MEL-2 melanoma, with SK-MEL-28 melanoma and with SNB-75 CNS was over 100 µM each time.

With `CC1(C)OC2=C(CC1Br)C(=O)C(=O)c1ccccc12` (centres undefined), the GI50 is 2.03 µM with ACHN renal; 2.33 µM with HOP-92 NSCLC; 2.18 µM in the test with IGROV1 ovarian; 1.9 µM in the test with M14 melanoma; 2.26 µM with NCI/ADR-RES ovarian; 2.13 µM in the test with PC-3 prostate. The values for the GI50 in the test on SK-MEL-2 melanoma, with SK-MEL-28 melanoma and in the test on SNB-75 CNS were 1.65 µM, 1.82 µM and 1.82 µM, respectively. Moreover, the TGI stood at 3.84 µM in the test with ACHN renal; 3.97 µM in the test on HOP-92 NSCLC; 4.12 µM with IGROV1 ovarian; 3.64 µM in the test with M14 melanoma; 5.22 µM in the test with NCI/ADR-RES ovarian; 4.95 µM in the test with PC-3 prostate. Besides, the values for the TGI in the test with SK-MEL-2 melanoma, with SK-MEL-28 melanoma and in the test on SNB-75 CNS were 3.57 µM, 3.24 µM and 3.26 µM, respectively.

Regarding `COc1ccc(C(=O)C#Cc2cnc(OC)nc2OC)cc1`, the GI50 was 17200 µM in the test on ACHN renal; 19700 µM in the test with HOP-92 NSCLC; 20300 µM in the test with IGROV1 ovarian; 27900 µM in the test with M14 melanoma; 27800 µM with PC-3 prostate; 36100 µM in the test with SK-MEL-2 melanoma. For the same molecule, in the test on SK-MEL-28 melanoma, the GI50 was 89800 µM. For the same molecule, the TGI was determined as 2.64 µM with M14 melanoma; 79000 µM with NCI/ADR-RES ovarian; 2.58 µM in the test on PC-3 prostate; 3.47 µM in the test on SK-MEL-28 melanoma; 4.8 µM with SNB-75 CNS. Moreover, in the test on SNB-75 CNS, the result was inactive.

For the molecule `CC(C)(CO)N1CCN(C(=S)Nc2ccccc2)CC1`, the TGI in the test with ACHN renal, in the test with HOP-92 NSCLC, with IGROV1 ovarian, in the test with M14 melanoma, in the test with NCI/ADR-RES ovarian and in the test on PC-3 prostate was over 100 µM each time. For the same molecule, the TGI with SK-MEL-2 melanoma, in the test with SK-MEL-28 melanoma and in the test on SNB-75 CNS was over 100 µM each time.

`O=C(O)/C=C(\c1nc2ccc([N+](=O)[O-])cc2[nH]1)c1cc(Cl)ccc1O`: the GI50 in the test with ACHN renal is 2.38 µM; with HOP-92 NSCLC, 0.711 µM; with IGROV1 ovarian, 2.92 µM; in the test with M14 melanoma, 2.78 µM; in the test on NCI/ADR-RES ovarian, 2.71 µM; in the test on PC-3 prostate, 2.25 µM. The GI50 in the test on SK-MEL-2 melanoma is 2.4 µM; in the test on SK-MEL-28 melanoma, 2.66 µM; in the test with SNB-75 CNS, 3.14 µM. Further, the TGI in the test with ACHN renal is 10.6 µM; in the test with HOP-92 NSCLC, 5.35 µM; in the test with IGROV1 ovarian, 39.5 µM; in the test with M14 melanoma, 12 µM; with NCI/ADR-RES ovarian, over 100 µM; in the test on PC-3 prostate, over 100 µM. Besides, the TGI was determined as 7.59 µM in the test with SK-MEL-2 melanoma, 14.4 µM in the test on SK-MEL-28 melanoma and 27.6 µM with SNB-75 CNS.

With `O=C(Nc1ccc(-c2nc(N3CCOCC3)c3cccn3n2)cc1)Nc1cccnc1`, the GI50 in the test on ACHN renal is 0.189 µM; in the test with IGROV1 ovarian it was 0.0767 µM; in the test with NCI/ADR-RES ovarian, 0.393 µM; in the test on PC-3 prostate it was 0.0512 µM; in the test on SK-MEL-2 melanoma it was 0.333 µM; with SNB-75 CNS it was 0.0432 µM. Also, the TGI was 3.64 µM in the test with ACHN renal; 0.0637 µM with HOP-92 NSCLC; 0.464 µM with IGROV1 ovarian; 6.27 µM in the test with NCI/ADR-RES ovarian; 2.27 µM in the test with PC-3 prostate; over 100 µM in the test on SK-MEL-2 melanoma. In addition, the TGI in the test with SNB-75 CNS is 0.64 µM.

As for `CCCCCCCC(=O)OCC/C=C/C1OC1C1OC(=O)/C=C\C=C\c2nc(oc2C)/C=C(/C)CCC2OC2C1OC(=O)NC(C)=O` (centres undefined), the GI50 was 0.0103 µM in the test with ACHN renal; 0.0283 µM in the test with HOP-92 NSCLC; 0.0262 µM in the test with IGROV1 ovarian; 0.165 µM in the test with NCI/ADR-RES ovarian; 0.0272 µM in the test on PC-3 prostate; 0.0222 µM in the test with SK-MEL-2 melanoma. Further, the GI50 in the test on SK-MEL-28 melanoma was 0.0679 µM; in the test with SNB-75 CNS, 0.0277 µM. Further, the TGI with ACHN renal was determined as 0.933 µM; in the test with HOP-92 NSCLC, 0.168 µM; in the test on IGROV1 ovarian, 0.918 µM; with NCI/ADR-RES ovarian it was 1.88 µM; in the test on PC-3 prostate it was 1.84 µM; with SK-MEL-2 melanoma, 0.0647 µM. The TGI with SK-MEL-28 melanoma turned out to be 0.159 µM; in the test on SNB-75 CNS, 0.0765 µM.

Consider `COc1ccc2c(c1)CCCN2c1c2ccccc2nc2ccccc12`, for which the GI50 in the test on ACHN renal was 0.611 µM; with HOP-92 NSCLC it was 0.683 µM; in the test on IGROV1 ovarian, 0.811 µM; in the test with NCI/ADR-RES ovarian, 0.275 µM; in the test on PC-3 prostate, 0.354 µM; with SK-MEL-2 melanoma, 0.813 µM. Also, the GI50 with SK-MEL-28 melanoma was 0.878 µM; in the test on SNB-75 CNS, 0.2 µM. Further, the TGI with ACHN renal is over 100 µM; in the test on HOP-92 NSCLC, 6.46 µM; in the test on IGROV1 ovarian, 34.7 µM; in the test on NCI/ADR-RES ovarian, 0.771 µM; with PC-3 prostate, over 100 µM; with SK-MEL-2 melanoma, over 100 µM. Besides, the TGI in the test on SK-MEL-28 melanoma is over 100 µM; in the test with SNB-75 CNS, 0.821 µM.
